What was measured:
Experiment in all cases: viability relative to DMSO control (fraction); higher = less drug effect (more viable cells)
Details in all cases: 48 h
[1] = system: primary ALL patient cells (S048)
Procedure, shortened: (§1)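 Using 384-well plates with compounds already plated at five concentrations, one well per concentration, 4 × 10^4 primary mononuclear tumour cells were added per well. Cells were Ficoll-isolated from blood or bone marrow or came from processed lymph node, fresh or cryopreserved. They were kept for 48 h at 37 °C and 5% CO2 in RPMI-1640 supplemented with penicillin/streptomycin, L-glutamine and human serum, and viability was read as CellTiter-Glo luminescence relative to the median of 16 inner DMSO wells.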

[2] = system: primary ALL patient cells (S088)
Procedure, shortened: as §1

[3] = system: primary AML patient cells (S007)
Procedure, shortened: as §1

[4] = system: primary AML patient cells (S011)
Procedure, shortened: as §1

[5] = system: primary AML patient cells (S012)
Procedure, shortened: as §1

[6] = system: primary AML patient cells (S019)
Procedure, shortened: as §1

[7] = system: primary AML patient cells (S027)
Procedure, shortened: as §1

[8] = system: primary AML patient cells (S056)
Procedure, shortened: as §1

[9] = system: primary AML patient cells (S079)
Procedure, shortened: as §1

[10] = system: primary AML patient cells (S085)
Procedure, shortened: as §1

[11] = system: primary CLL patient cells (S031)
Procedure, shortened: as §1

[12] = system: primary FL patient cells (S022)
Procedure, shortened: as §1

[13] = system: primary FL patient cells (S087)
Procedure, shortened: as §1

[14] = system: primary MCL patient cells (S041)
Procedure, shortened: as §1

[15] = system: primary MCL patient cells (S063)
Procedure, shortened: as §1

[16] = system: primary AML patient cells (S006)
Procedure, shortened: as §1

[17] = system: primary DLBCL patient cells (S049)
Procedure, shortened: as §1

[18] = system: primary DLBCL patient cells (S076)
Procedure, shortened: as §1

[19] = system: primary T-NHL patient cells (S058)
Procedure, shortened: as §1

CCc1cnn2c(NCc3ccc[n+]([O-])c3)cc(N3CCCC[C@H]3CCO)nc12 [Dinaciclib]
viability ([1]; 0.0016 µM): 0.839 | viability ([1]; 0.008 µM): 0.127 | viability ([1]; 0.04 µM): 0.0333 | viability ([1]; 0.2 µM): 0.0246 | viability ([1]; 1 µM): 0.0268 | viability ([2]; 0.0016 µM): 0.644 | viability ([2]; 0.008 µM): 0.0942 | viability ([2]; 0.04 µM): 0.0343 | viability ([2]; 0.2 µM): 0.0308 | viability ([2]; 1 µM): 0.0318 | viability ([3]; 0.0016 µM): 0.637 | viability ([3]; 0.008 µM): 0.175 | viability ([3]; 0.04 µM): 0.118 | viability ([3]; 0.2 µM): 0.12 | viability ([3]; 1 µM): 0.141 | viability ([4]; 0.0016 µM): 1.23 | viability ([4]; 0.008 µM): 0.155 | viability ([4]; 0.04 µM): 0.0402 | viability ([4]; 0.2 µM): 0.0329 | viability ([4]; 1 µM): 0.0263 | viability ([5]; 0.0016 µM): 1.1 | viability ([5]; 0.008 µM): 0.473 | viability ([5]; 0.04 µM): 0.0686 | viability ([5]; 0.2 µM): 0.0607 | viability ([5]; 1 µM): 0.0676 | viability ([6]; 0.0016 µM): 1.31 | viability ([6]; 0.008 µM): 0.54 | viability ([6]; 0.04 µM): 0.114 | viability ([6]; 0.2 µM): 0.116 | viability ([6]; 1 µM): 0.126 | viability ([7]; 0.0016 µM): 1.05 | viability ([7]; 0.008 µM): 0.12 | viability ([7]; 0.04 µM): 0.0422 | viability ([7]; 0.2 µM): 0.0393 | viability ([7]; 1 µM): 0.0395 | viability ([8]; 0.0016 µM): 0.898 | viability ([8]; 0.008 µM): 0.0944 | viability ([8]; 0.04 µM): 0.101 | viability ([8]; 0.2 µM): 0.0868 | viability ([8]; 1 µM): 0.0937 | viability ([9]; 0.0016 µM): 1 | viability ([9]; 0.008 µM): 0.153 | viability ([9]; 0.04 µM): 0.028 | viability ([9]; 0.2 µM): 0.0285 | viability ([9]; 1 µM): 0.0293 | viability ([10]; 0.0016 µM): 1 | viability ([10]; 0.008 µM): 0.11 | viability ([10]; 0.04 µM): 0.0634 | viability ([10]; 0.2 µM): 0.0552 | viability ([10]; 1 µM): 0.0573 | viability ([11]; 0.0016 µM): 0.744 | viability ([11]; 0.008 µM): 0.0197 | viability ([11]; 0.04 µM): 0.018 | viability ([11]; 0.2 µM): 0.0169 | viability ([11]; 1 µM): 0.0188 | viability ([12]; 0.0016 µM): 1.01 | viability ([12]; 0.008 µM): 0.227 | viability ([12]; 0.04 µM): 0.195 | viability ([12]; 0.2 µM): 0.216 | viability ([12]; 1 µM): 0.269 | viability ([13]; 0.0016 µM): 0.962 | viability ([13]; 0.008 µM): 0.641 | viability ([13]; 0.04 µM): 0.759 | viability ([13]; 0.2 µM): 0.756 | viability ([13]; 1 µM): 0.829 | viability ([14]; 0.0016 µM): 0.938 | viability ([14]; 0.008 µM): 0.0691 | viability ([14]; 0.04 µM): 0.0382 | viability ([14]; 0.2 µM): 0.0378 | viability ([14]; 1 µM): 0.0402 | viability ([15]; 0.0016 µM): 1 | viability ([15]; 0.008 µM): 0.0229 | viability ([15]; 0.04 µM): 0.0173 | viability ([15]; 0.2 µM): 0.0173 | viability ([15]; 1 µM): 0.0157

Nc1ccc2ncnc(NCCc3ccc(Oc4ccccc4)cc3)c2c1 [EVP4593]
viability ([1]; 0.008 µM): 0.776 | viability ([1]; 0.04 µM): 0.919 | viability ([1]; 0.2 µM): 0.88 | viability ([1]; 1 µM): 0.869 | viability ([1]; 5 µM): 0.676 | viability ([2]; 0.008 µM): 0.151 | viability ([2]; 0.04 µM): 0.168 | viability ([2]; 0.2 µM): 0.147 | viability ([2]; 1 µM): 0.108 | viability ([2]; 5 µM): 0.088 | viability ([16]; 0.008 µM): 0.855 | viability ([16]; 0.04 µM): 0.755 | viability ([16]; 0.2 µM): 0.557 | viability ([16]; 1 µM): 0.362 | viability ([16]; 5 µM): 0.248 | viability ([3]; 0.008 µM): 0.722 | viability ([3]; 0.04 µM): 0.514 | viability ([3]; 0.2 µM): 0.379 | viability ([3]; 1 µM): 0.257 | viability ([3]; 5 µM): 0.217 | viability ([4]; 0.008 µM): 0.746 | viability ([4]; 0.04 µM): 0.633 | viability ([4]; 0.2 µM): 0.617 | viability ([4]; 1 µM): 0.467 | viability ([4]; 5 µM): 0.459 | viability ([5]; 0.008 µM): 1.05 | viability ([5]; 0.04 µM): 1.03 | viability ([5]; 0.2 µM): 1.07 | viability ([5]; 1 µM): 0.992 | viability ([5]; 5 µM): 1.05 | viability ([6]; 0.008 µM): 0.922 | viability ([6]; 0.04 µM): 0.883 | viability ([6]; 0.2 µM): 0.84 | viability ([6]; 1 µM): 0.82 | viability ([6]; 5 µM): 0.764 | viability ([8]; 0.008 µM): 0.691 | viability ([8]; 0.04 µM): 0.627 | viability ([8]; 0.2 µM): 0.412 | viability ([8]; 1 µM): 0.313 | viability ([8]; 5 µM): 0.307 | viability ([9]; 0.008 µM): 0.818 | viability ([9]; 0.04 µM): 0.84 | viability ([9]; 0.2 µM): 0.806 | viability ([9]; 1 µM): 0.675 | viability ([9]; 5 µM): 0.646 | viability ([10]; 0.008 µM): 2.31 | viability ([10]; 0.04 µM): 0.901 | viability ([10]; 0.2 µM): 1.11 | viability ([10]; 1 µM): 0.666 | viability ([10]; 5 µM): 0.55 | viability ([11]; 0.008 µM): 0.884 | viability ([11]; 0.04 µM): 0.854 | viability ([11]; 0.2 µM): 0.803 | viability ([11]; 1 µM): 0.686 | viability ([11]; 5 µM): 0.601 | viability ([17]; 0.008 µM): 0.89 | viability ([17]; 0.04 µM): 0.763 | viability ([17]; 0.2 µM): 0.37 | viability ([17]; 1 µM): 0.257 | viability ([17]; 5 µM): 0.197 | viability ([18]; 0.008 µM): 0.999 | viability ([18]; 0.04 µM): 0.989 | viability ([18]; 0.2 µM): 0.741 | viability ([18]; 1 µM): 0.657 | viability ([18]; 5 µM): 0.551 | viability ([12]; 0.008 µM): 0.911 | viability ([12]; 0.04 µM): 0.871 | viability ([12]; 0.2 µM): 0.805 | viability ([12]; 1 µM): 0.816 | viability ([12]; 5 µM): 0.825 | viability ([13]; 0.008 µM): 0.933 | viability ([13]; 0.04 µM): 0.915 | viability ([13]; 0.2 µM): 0.862 | viability ([13]; 1 µM): 0.811 | viability ([13]; 5 µM): 0.79 | viability ([14]; 0.008 µM): 0.902 | viability ([14]; 0.04 µM): 0.93 | viability ([14]; 0.2 µM): 0.873 | viability ([14]; 1 µM): 0.716 | viability ([14]; 5 µM): 0.729 | viability ([15]; 0.008 µM): 0.934 | viability ([15]; 0.04 µM): 0.945 | viability ([15]; 0.2 µM): 0.924 | viability ([15]; 1 µM): 0.874 | viability ([15]; 5 µM): 0.866 | viability ([19]; 0.008 µM): 1.09 | viability ([19]; 0.04 µM): 0.934 | viability ([19]; 0.2 µM): 0.784 | viability ([19]; 1 µM): 0.809 | viability ([19]; 5 µM): 0.715
